From patent US8470886B2, “Topical ibuprofen formulations” (NUVO Research Inc., priority 2009, dated 2013)
Where a name gives a salt, the structure may show the parent alone.

Experiments:
[1] = cited from earlier work
[2] = Skin permeation of ibuprofen through porcine skin, Franz diffusion cells (finite dosing); assay type: in vitro ADME; details: bar graphs FIG. 1-13
Method: “Enhancement ratio” (“ER”) as used herein is the ratio of a test result (e.g., ug/cm^2 accumulated dose of product) from a formulation comprising ibuprofen to the corresponding test result from a control composition comprising ibuprofen at the same concentration in the formulation.
“Ratio”, as it pertains to comparative flux values described herein, are calculated based on the cumulative amount of active (e.g. ibuprofen) delivered through the skin over a period of 4-60 hrs, preferably 24 hrs.
The permeation of ibuprofen through porcine skin from each of the present formulations was measured using Franz diffusion cells (“FDC”s). Porcine skin pieces are obtained from Lampire Biological Laboratories, Inc., Pipersville, Pa. Porcine skins were collected immediately following animal sacrifice, and the hairs were trimmed with clippers. Larger pieces of excess fat were removed with a filet knife. The skin was then trimmed to a set thickness of some 2 mm, cut into individual pieces, wrapped in aluminum foil, frozen, shipped, and stored at −78° C.
Prior to use, the skin pieces were allowed to thaw, in air, to room temperature. […]
Samples were drawn from the receptor wells at various times, as provided in the examples that follow. […] The concentrations of ibuprofen in the samples were measured using HPLC analysis using a C18 column and acetonitrile and water as the mobile phase. […]

pH of the formulation = assay type: physicochemical; details: Table 20; single ingredient in water at its Ib949 wt %

| Structure (SMILES) | pH-water and ingredients (pH of the formulation) | also measured |
| --- | --- | --- |
| CC(C)Cc1ccc(C(C)C(=O)O)cc1 (racemic) [Ibuprofen, 2-(4-isobutylphenyl)propanoic acid] |  | Solubility in polar organic solvents ([1]; ethanol and acetone): readily soluble; Solubility in water ([1]; water): < 100 µg/mL |
| CC(C)Cc1ccc([C@H](C)C(=O)O)cc1 [(S) form, (S+)-ibuprofen] |  | Flux / permeation of ibuprofen, result in words [2]: no significant difference in flux |
| CCO [Ethanol] | 7.31 |  |
| CC(O)C(=O)O (centres unmarked) [Lactic Acid] | 2.4 |  |
| COC(=O)c1ccc(O)cc1 [MP] | 5.72 |  |
| CCCCCCCCCCCCOS(=O)(=O)[O-].[Na+] [Na Lauryl Sulfate] | 7.97 |  |
| CC(O)CO (centres unmarked) [PG] | 6.97 |  |
| CCCOC(=O)c1ccc(O)cc1 [PP] | 6.13 |  |
| CCOCCOCCO [Transcutol] | 4.32 |  |
| CCOC(=O)CC(O)(CC(=O)OCC)C(=O)OCC [Triethyl Citrate] | 3.72 |  |
